Measured values taken from patent EP0121635A1, “3',5',-Diarabinosides, their preparation and their therapeutical application” (SYNTHELABO, priority 1982, dated 1984).

Key:
[1] = tested on: tumeur ascitique d'Ehrlich; experiment: Development of Ehrlich ascites tumour in mice (survival); format: in vivo, Souris; conditions: for % d'augmentation: increase of survival versus controls; for Durée de survie des souris: souris Swiss, 2 x 10^6 malignant cells i.p., 4 days; for Nombre d'animaux sans tumeur au 28ème jour: day 28, controls 0/12 and 0/5; for Nombre d'animaux sans tumeur au 28ème jour / % d'augmentation de survie (pour les animaux décédés): same regimen; for % d'augmentation de survie (pour les animaux décédés): versus controls
Method: Les composés de l'invention ont été soumis à des essais pharmacologiques montrant leur intérêt dans le domaine antitumoral. L'action des composés sur le développement de la tumeur ascitique d'Ehrlich chez la Souris a été observée.
Les essais se font sur des lots de 5 ou 6 souris Swiss de 12 à 15 g. Chaque animal reçoit 2 x 10^6 cellules malignes par voie péritonéale. Le traitement débute 16 h après l'inoculation et consiste en 2 injections par jour de 0,75 ml d'une solution de dinucléotide à 2 mg/ml dans le péritoine c'est-à-dire 3 mg par animal et par jour ou 200 mg/kg. La durée du traitement est de 4 jours.
Les dinucléotides,composés de l'invention, ont été testés de la manière indiquée.

virus Herpès = experiment: Herpes virus yield in treated cell cultures (TCID50 titre); format: cell-based; conditions: untreated control harvest titre 10^5,625; concentration not given
Excerpt: L'activité des trois composés de l'invention Ara A-p-Ara A, Ara A-p-Ara C et Ara C-p-Ara A a également été démontrée sur le virus Herpès.
La récolte virale témoin (cellules non traitées) a un titre TCI D50 (tissue culture infecting dosis) de 10^5,625.
Les cultures traitées par les composés de l'invention ont les titres suivants • Ara A-p-Ara A TCID50 = 10^3,16 • ^Ara A^-p-Ara C TCID50 ^< 102 • Ara C-p-Ara A TCID50 ≤ 10^2,5

[2] = Tableau 2, dinucleotide 200 mg/kg per day i.p., controls 14,67 j
[3] = Tableau 1, dinucleotide 200 mg/kg per day i.p. in 2 injections, start 16 h after inoculation, controls 16,54 j (Ara A, Ara C) and 18 j (Ara A-p-Ara C)

SMILES	% d'augmentation ([1]; Tableau 2)	Durée de survie des souris [1, 2]	Nombre d'animaux sans tumeur au 28ème jour ([1]; Tableau 1)	Durée de survie des souris [1, 3]	% d'augmentation de survie (pour les animaux décédés) ([1]; Tableau 1)	TCID50 (titre of viral harvest of treated cultures) (virus Herpès)
Nc1ncnc2c1ncn2[C@@H]1O[C@H](COP(=O)(O)O[C@H]2[C@H](O)[C@H](n3cnc4c(N)ncnc43)O[C@@H]2CO)[C@@H](O)[C@@H]1O [Ara A-p-Ara A]	44,3%	21,17 j	–	–	–	–
Nc1ccn([C@@H]2O[C@H](COP(=O)(O)O[C@H]3[C@H](O)[C@H](n4cnc5c(N)ncnc54)O[C@@H]3CO)[C@@H](O)[C@@H]2O)c(=O)n1 [Ara A-p-Ara C]	–	–	4/5	> 36 J	> 100%	< 102
Nc1ncnc2c1ncn2[C@@H]1O[C@H](CO)[C@@H](O)[C@@H]1O [Ara A, 9-β-D-arabinofuranosyl-adénine]	39,75%	20,5 j	0	24,5 j	48,5%	–
Nc1ccn([C@@H]2O[C@H](CO)[C@@H](O)[C@@H]2O)c(=O)n1 [Ara C, 1-β-D-arabinofuranosyl-cytosine]	–	–	0	32 J	94,4%	–
